Measurements from patent US20210251228A1, “METHODS FOR REPELLING DROSOPHILA SPECIES USING 2-PENTYLFURAN” (The United States of America, as represented by the …, priority 2020, published 2021).

Test system: Drosophila suzukii antennae
Test: Coupled GC-EAD of bread dough headspace volatiles on SWD antennae
Conditions: adult female SWD antennae; adsorbent extract of bread dough; authentic standards 10 ng/μl
Procedure: Adsorbent Sampling from Bread Dough: The bread dough bait consisted of whole-wheat flour (17.25 g), sugar (2 g), dry active bread yeast (0.325 g), apple cider vinegar (1 ml), and water (25 ml) (Cha, D. H., et al., J. Econ. Entomol., 111: 645-652 (2018a)). Headspace volatiles were collected from 10 g bread dough ball placed in a screened specimen cup (130 ml) by using 2.41 closed volatile collection chambers (ARS, Inc., Gainesville, Fla.) with one air inlet adapter (7 mm ID) on the top and an outlet adapter (7 mm ID) on the bottom wall. Clean air from a filtering and delivery system (ARS Inc., Gainesville, Fla.) was pushed into the chamber at 0.7 L/min through the top inlet port, and volatiles from the dough were pushed out through volatile traps (activated charcoal adsorbent filters, ORBO™32-small, Supelco Inc., Bellefonte, Pa.) on the bottom of the chamber. An additional ORBO™ filter was used to ensure that no breakthrough occurred. For each sample of dough (2 dough samples total), adsorbent collections were made over a 2-day period at room temperature using the same volatile trap. Volatiles were eluted with 600 μl methylene chloride every 24 h from the filters of a given dough sample and combined across the total of the collecting days (from 2 dough samples). The combined extract was kept at −20° C. and subjected to as chromatography-electroantennographic detection (GC-EAD) and gas chromatography-mass spectrometry (GC-MS) analyses.
Coupled Gas Chromatographic-Electroantennographic Detection (GC-EAD): Coupled GC-EAD analysis was performed as described previously (Cha, D. H., J. Chem. Ecol., 34: 1180-1189 (2008); Cha, D. H., et al., J. Chem. Ecol., 38: 1419-1431 (2012)) using a Hewlett Packard 5890 Series II gas chromatograph equipped with either a non-polar DB-5 ms capillary column (30 m×0.25 mm ID, 0.25 μm film thickness; Agilent Technologies, Wilmington, Del.) or polar DB-WAXetr capillary column (30 m×0.25 mm ID, 0.25 μm film thickness; Agilent Technologies, Wilmington, Del.) in the splitless mode with 1 min sampling time. The oven temperature was programmed at 40° C. for 5 min, then increased by 15° C./min to 250° C., and held for 5 min. Injector and detector temperatures were set at 250° C. Nitrogen gas was the carrier at a flow of 2 ml/min. The column effluent was split 1:1 in the oven via a “Y” glass splitter (Supelco). One arm of the splitter led to the flame ionization detector (FID) (250° C.) and the other to the heated EAD port (250° C.). Whole head preparations were made of individual flies, age 5-9 day, for GC-EAD analysis (Cha et al. 2012). The head was separated from the body and its antennae positioned between two gold wire electrodes immersed in saline filled (Drosophila ringer solution; 46 mmol NaCl, 182 mmol KCl, 3 mmol CaCl2, and 10 mmol Tris HCl at pH 7.2) micropipettes in an acrylic holder. The antennal holder was placed inside a humidified condenser and maintained at 5° C. The output signal from the antenna was amplified by a customized high input impedance DC amplifier and recorded on an HP 3390A integrator.
Chemical Analysis: GC-MS was carried out with an Agilent 5975MS coupled with a Agilent 6890GC equipped with either a DB-5 ms capillary column (30 m×0.25 mm ID, 0.25 μm film thickness; Agilent Technologies, Wilmington, Del.) or DB-WAXetr capillary column (30 m×0.25 mm ID, 0.25 μm film thickness; Agilent Technologies, Wilmington, Del.). Helium was the carrier gas (1.0 ml/min constant flow). The GC temperature program was the same as used for the GC-EAD analyses. The MS transfer-line was held at 260° C., the MS source at 230° C., and the MS quad at 150° C. Mass spectra were taken in EI mode (at 70 eV) in the range from 40 m/z to 350 m/z with a scanning rate of 4.58 scan/s. GC-MS data were processed with the MDS-Chemstation software (Agilent Technologies). […]

CCCCCc1ccco1 [2-pentylfuran]
GC-EAD activity (antennal response): active
